Test results taken from US20130053430A1, “MODULATION OF CETP EXPRESSION” (Isis Pharmaceuticals, Inc., priority 2010, published 2013).
e = 2'-O-(2-methoxyethyl) (MOE); d = 2'-deoxy (DNA)

How the values were obtained:
[1] = Liver function, plasma ALT and AST, dose response (Example 9); format: in vivo, mice
Procedure: (§1) Another group received subcutaneous injections of control oligonucleotide ISIS 141923 at a dose of 50 mg/kg/week for 6 weeks. One group of mice received subcutaneous injections of PBS for 6 weeks. The PBS-injected group served as the control group to which treatment groups were compared.

[2] = system: SR-B1; assay: Liver SR-B1 mRNA expression (Example 9); format: in vivo, mice; details: s.c. 6 weeks; for Percent inhibition of liver mRNA expression, SR-B1: percentage increase or decrease compared to PBS control
Procedure: as §1
(§2) Liver RNA was isolated for real-time PCR analysis of ABCA1, ApoAI, and SR-B1. ATP-binding cassette transporter ABCA1 (member 1 of human transporter sub-family ABCA), also known as the cholesterol efflux regulatory protein (CERP) is a protein which in humans is encoded by the ABCA1 gene (Luciani, M. F. et al., Genomics. 1994. 21: 150-9). This transporter is a major regulator of cellular cholesterol and phospholipid homeostasis. Apolipoprotein A-I is a protein that in humans is encoded by the APOA1 gene (Breslow, J. L. et al., Proc. Natl. Acad. Sci. USA 1982. 79: 6861-5). Apolipoprotein A-I is the major protein component of HDL in plasma. The protein promotes cholesterol efflux from tissues to the liver for excretion. Scavenger receptor class B, type I (SR-BI) is an integral membrane protein found in numerous cell types/tissues, including the liver and adrenal (Acton, S. L. et al., J. Biol. Chem. 1994. 269: 21003-21009). It is best known for its role in facilitating the uptake of cholesteryl esters from high-density lipoproteins in the liver. Therefore, all three genes have a role in HDL regulation.
(§3) The primer probe set RTS1204 (forward sequence […], designated herein as SEQ ID NO: 122, reverse sequence […], designated herein as SEQ ID NO: 123, probe sequence AGGCCCAGACCTGTAAAGGCGAAGX, with X a fluorophore, designated herein as SEQ ID NO: 124) was used to measure abca1 levels. The primer probe set RTS14737 (forward sequence […], designated herein as SEQ ID NO: 125, reverse sequence […], designated herein as SEQ ID NO: 126, probe sequence CTGCAGGAACGGCTGGGCCCX, with X a fluorophore, designated herein as SEQ ID NO: 127) was used to measure apoA1 levels. The primer probe set mSRB-1 (forward sequence […], designated herein as SEQ ID NO: 128, reverse sequence ATGCGACTTGTCAGGCTGG, designated herein as SEQ ID NO: 129, probe sequence CGTGGAGAACCGCAGCCTCCATTX, with X a fluorophore, designated herein as SEQ ID NO: 130) was used to measure sr-b1 levels. The results are presented in Table 44 as percentage increase or decrease in the respective expression levels compared to the PBS control. Both primer probe sets produced similar results. The RNA expression levels were normalized to murine Cyclophilin. Treatment with ISIS 349517 caused an increase in ApoA1 and SR-B1 levels.

[3] = system: CETP protein; assay: Plasma CETP protein by ELISA, dose response (Example 9); format: in vivo, human; details: huCETP transgenic mice, Western diet, s.c. 6 weeks
Procedure: as §1
Plasma CETP protein levels were measured by ELISA (Alpco). The results are expressed as percent inhibition of CETP protein, relative to the PBS control.

[4] = system: ApoA1; assay: Liver ApoA1 mRNA expression (Example 9); format: in vivo, mice; details: s.c. 6 weeks; for Percent inhibition of liver mRNA expression, ApoA1: percentage increase or decrease compared to PBS control
Procedure: as §1, §2, §3

[5] = system: CETP protein; assay: Plasma CETP protein by ELISA, normal or cholesterol-enriched chow (Example 6); format: in vivo, human; details: 50 mg/kg s.c. twice per week
Procedure: The normal chow-fed mice were divided into three treatment groups. The cholesterol-enriched chow-fed mice were divided into three treatment groups. […] One chow-fed group and one cholesterol-enriched chow-fed group received subcutaneous injections of saline twice weekly for 6 weeks. The saline-injected groups served as the control groups to which the corresponding oligonucleotide-treated groups were compared.
Plasma levels of CETP protein were measured by ELISA (Alpco, N.H.). […] The results are expressed as percentage inhibition compared to the PBS control.

[6] = Plasma cholesterol and triglyceride levels in huCETP transgenic mice (Example 5); format: in vivo; details: 50 mg/kg i.p. twice per week; for HDL / LDL / Total cholesterol / Triglycerides / VLDL: plasma
Procedure: The mice were divided into five treatment groups. The first four groups received intraperitoneal injections of ISIS 349511, ISIS 349512, ISIS 349515, or ISIS 349517 at a dose of 50 mg/kg twice per week for 6 weeks. The fifth group received intraperitoneal injections of saline twice weekly for 6 weeks.
Plasma cholesterol were extracted at weeks 3 and 6 by the method of Bligh and Dyer (Bligh, E. G. and Dyer, W. J. Can. J. Biochem. Physiol. 37: 911-917, 1959) and measured with an Olympus clinical analyzer (Hitachi Olympus AU400e, Melville, N.Y.). HDL, LDL and VLDL cholesterol were individually measured by HPLC. Triglyceride levels were measured with the use of a commercially available triglyceride kit (DCL Triglyceride Reagent; Diagnostic Chemicals Ltd.). The results are presented in Tables 13 and 14 and are expressed in mg/dL. There was a significant increase in HDL levels in mice treated with ISIS oligonucleotides.

[7] = huCETP transgenic mice, Western diet

ISIS 141923: CCTTCCCTGAAGGTTCCTCC, 5-10-5 MOE gapmer, a control oligonucleotide which has no known murine target (sugars from the 5' end e5 d10 e5, backbone and methylation of C not given here) [reference compound]
ALT levels ([1]; 50 mg/kg/wk, Week 0): 27 IU/L | AST levels ([1]; 50 mg/kg/wk, Week 0): 26 IU/L | ALT levels ([1]; 50 mg/kg/wk, Week 3): 27 IU/L | AST levels ([1]; 50 mg/kg/wk, Week 3): 46 IU/L | ALT levels ([1]; 50 mg/kg/wk, Week 6): 45 IU/L | AST levels ([1]; 50 mg/kg/wk, Week 6): 107 IU/L | Percent inhibition of liver mRNA expression, SR-B1 ([2]; Dose 50 mg/kg/wk): +37% | Percent inhibition of plasma CETP protein levels ([3]; Dose 50 mg/kg/wk): 7% | Percent inhibition of liver mRNA expression, ApoA1 ([4]; Dose 50 mg/kg/wk): −50%

ISIS 349511: 5-10-5 MOE gapmer CCCGACCTCCTTGGAGACTT (sugars from the 5' end e5 d10 e5, backbone and methylation of C not given here)
Percent inhibition of plasma CETP protein levels ([5]; Cholesterol chow, Week 3): 89% | Percent inhibition of plasma CETP protein levels ([5]; Cholesterol chow, Week 6): 85% | Percent inhibition of plasma CETP protein levels ([5]; Normal chow, Week 3): 81% | Percent inhibition of plasma CETP protein levels ([5]; Normal chow, Week 6): 85% | Percentage of HDL in total cholesterol ([6]; Week 3): 73% | Percentage of HDL in total cholesterol ([6]; week 6): 76% | HDL ([6]; week 3): 60 mg/dL | LDL ([6]; week 3): 15 mg/dL | Total cholesterol ([6]; week 3): 83 mg/dL | Triglycerides ([6]; week 3): 87 mg/dL | HDL ([6]; week 6): 66 mg/dL | LDL ([6]; week 6): 17 mg/dL | Total cholesterol ([6]; week 6): 88 mg/dL | Triglycerides ([6]; week 6): 84 mg/dL | VLDL ([6]; week 6): 4 mg/dL

ISIS 349517: 5-10-5 MOE gapmer CAGCACTTTAATGCCAGTGG (sugars from the 5' end e5 d10 e5, backbone and methylation of C not given here)
ALT levels ([1]; 1.5 mg/kg/wk, Week 0): 20 IU/L | AST levels ([1]; 1.5 mg/kg/wk, Week 0): 38 IU/L | ALT levels ([1]; 1.5 mg/kg/wk, Week 3): 18 IU/L | AST levels ([1]; 1.5 mg/kg/wk, Week 3): 43 IU/L | ALT levels ([1]; 1.5 mg/kg/wk, Week 6): 54 IU/L | AST levels ([1]; 1.5 mg/kg/wk, Week 6): 133 IU/L | ALT levels ([1]; 5 mg/kg/wk, Week 0): 26 IU/L | AST levels ([1]; 5 mg/kg/wk, Week 0): 40 IU/L | ALT levels ([1]; 5 mg/kg/wk, Week 3): 25 IU/L | AST levels ([1]; 5 mg/kg/wk, Week 3): 46 IU/L | ALT levels ([1]; 5 mg/kg/wk, Week 6): 49 IU/L | AST levels ([1]; 5 mg/kg/wk, Week 6): 246 IU/L | ALT levels ([1]; 15 mg/kg/wk, Week 0): 24 IU/L | AST levels ([1]; 15 mg/kg/wk, Week 0): 24 IU/L | ALT levels ([1]; 15 mg/kg/wk, Week 3): 27 IU/L | AST levels ([1]; 15 mg/kg/wk, Week 3): 47 IU/L | ALT levels ([1]; 15 mg/kg/wk, Week 6): 36 IU/L | AST levels ([1]; 15 mg/kg/wk, Week 6): 70 IU/L | ALT levels ([1]; 50 mg/kg/wk, Week 0): 27 IU/L | AST levels ([1]; 50 mg/kg/wk, Week 0): 27 IU/L | ALT levels ([1]; 50 mg/kg/wk, Week 3): 33 IU/L | AST levels ([1]; 50 mg/kg/wk, Week 3): 52 IU/L | ALT levels ([1]; 50 mg/kg/wk, Week 6): 76 IU/L | AST levels ([1]; 50 mg/kg/wk, Week 6): 171 IU/L | Percent inhibition of plasma CETP protein levels ([5]; Cholesterol chow, Week 3): 97% | Percent inhibition of plasma CETP protein levels ([5]; Cholesterol chow, Week 6): 96% | Percent inhibition of plasma CETP protein levels ([5]; Normal chow, Week 3): 95% | Percent inhibition of plasma CETP protein levels ([5]; Normal chow, Week 6): 91% | SR-B1 levels (liver mRNA) [2, 7]: increase | Percent inhibition of liver mRNA expression, SR-B1 ([2]; Dose 1.5 mg/kg/wk): +33% | Percent inhibition of liver mRNA expression, SR-B1 ([2]; Dose 5 mg/kg/wk): +34% | Percent inhibition of liver mRNA expression, SR-B1 ([2]; Dose 15 mg/kg/wk): +50% | Percent inhibition of liver mRNA expression, SR-B1 ([2]; Dose 50 mg/kg/wk): +42% | Percent inhibition of plasma CETP protein levels ([3]; Dose 1.5 mg/kg/wk): 58% | Percent inhibition of plasma CETP protein levels ([3]; Dose 5 mg/kg/wk): 74% | Percent inhibition of plasma CETP protein levels ([3]; Dose 15 mg/kg/wk): 81% | Percent inhibition of plasma CETP protein levels ([3]; Dose 50 mg/kg/wk): 80% | ApoA1 levels (liver mRNA) [4, 7]: increase | Percent inhibition of liver mRNA expression, ApoA1 ([4]; Dose 1.5 mg/kg/wk): −34% | Percent inhibition of liver mRNA expression, ApoA1 ([4]; Dose 5 mg/kg/wk): −13% | Percent inhibition of liver mRNA expression, ApoA1 ([4]; Dose 15 mg/kg/wk): +52% | Percent inhibition of liver mRNA expression, ApoA1 ([4]; Dose 50 mg/kg/wk): +136% | Percentage of HDL in total cholesterol ([6]; Week 3): 75% | Percentage of HDL in total cholesterol ([6]; week 6): 74% | HDL ([6]; week 3): 59 mg/dL | LDL ([6]; week 3): 14 mg/dL | Total cholesterol ([6]; week 3): 79 mg/dL | Triglycerides ([6]; week 3): 68 mg/dL | HDL ([6]; week 6): 55 mg/dL | LDL ([6]; week 6): 15 mg/dL | Total cholesterol ([6]; week 6): 75 mg/dL | Triglycerides ([6]; week 6): 103 mg/dL | VLDL ([6]; week 6): 4 mg/dL
